Assay results taken from PubChem BioAssay (NCI).
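The compound was tested at five concentrations on cells cultured in 96-well plates, with a 48-hour exposure period. At the TGI there is no net growth.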

Legend:
Experiment in all cases: growth of human tumour cells (NCI), 48 h
[1] = test system: K-562 leukemia
[2] = test system: DU-145 prostate
[3] = test system: NCI-H23 lung
[4] = test system: OVCAR-8 ovarian
[5] = test system: MDA-MB-231 breast
[6] = test system: HS 578T breast
[7] = test system: SF-539 CNS
[8] = test system: IGROV1 ovarian
[9] = test system: TK-10 renal
[10] = test system: SN12C renal
[11] = test system: SW-620 colon
[12] = test system: CCRF-CEM leukemia
[13] = test system: KM12 colon
[14] = test system: A498 renal
[15] = test system: RXF 393 renal
[16] = test system: HOP-92 NSCLC

Row | SMILES | TGI [1] | TGI [2] | TGI [3] | TGI [4] | TGI [5] | TGI [6] | TGI [7] | TGI [8] | TGI [9] | TGI [10] | TGI [11] | TGI [12] | TGI [13] | TGI [14] | TGI [15] | TGI [16]
1 | COC(=O)C1=C(C(=O)OC)SC(=C2c3ccsc3-c3sccc32)S1 | > 100 µM | > 100 µM | 56.2 µM | > 100 µM | > 100 µM | 52 µM | > 100 µM | > 100 µM | 57.8 µM | > 100 µM | > 100 µM | > 100 µM | > 100 µM | 71.4 µM | 41.6 µM | 
2 | CC(C)(C)[Si](C)(C)OCC1OC(n2cc(F)c(=O)[nH]c2=O)CC1O[Si](C)(C)C(C)(C)C (stereo not drawn) | 16 µM | 11.3 µM | 19.6 µM | 35.7 µM | 22 µM | 26.4 µM | 30.7 µM | 19.7 µM | 13.9 µM | 9.43 µM | 23.1 µM | 10.2 µM | 14.7 µM | 21.1 µM | 16.2 µM | 
3 | COC(=O)[C@@]12CC[C@]1(C(=O)OC)C1C(C)=CC(=O)O[C@@]12C (stereo partly drawn) | > 100 µM | > 100 µM | > 100 µM | > 100 µM | > 100 µM | > 100 µM | > 100 µM | > 100 µM | > 100 µM | > 100 µM | > 100 µM | > 100 µM | > 100 µM |  | > 100 µM | > 100 µM
4 | O=C(Nc1ccc(Cl)c(Cl)c1)C(=O)C(C1OC(=O)c2ccccc21)[N+](=O)[O-] (stereo not drawn) |  | > 100 µM | > 100 µM | > 100 µM | > 100 µM | > 100 µM | > 100 µM | > 100 µM | > 100 µM | > 100 µM | > 100 µM | > 100 µM | > 100 µM | > 100 µM | > 100 µM | > 100 µM
5 | O=C1C=C(c2c(-c3ccccc3)[nH]c3ccccc23)C(=O)N1c1ccccc1 | 29.9 µM | 15.7 µM | 38.6 µM | 20.8 µM | 25.6 µM | 52.8 µM | 39.2 µM | 51.4 µM | 30.3 µM | 22.5 µM | 18.4 µM | 49.4 µM |  | 23.1 µM | 15.2 µM | 30.6 µM
6 | Cc1nc2c(=O)[nH]c3ccccc3c2o1 |  | > 100 µM | > 100 µM | > 100 µM | > 100 µM | > 100 µM | > 100 µM | > 100 µM | > 100 µM | > 100 µM | > 100 µM | > 100 µM | > 100 µM | > 100 µM | > 100 µM | > 100 µM
7 | COc1cc(C2SCC(=O)N2c2ccc(-c3ccc(-n4c(-c5ccccc5)nc5ccccc5c4=O)cc3)cc2)ccc1O (stereo not drawn) | > 100 µM | > 100 µM | > 100 µM | > 100 µM | > 100 µM | > 100 µM | > 100 µM | > 100 µM | > 100 µM | > 100 µM | > 100 µM | > 100 µM | > 100 µM | > 100 µM |  | 74.1 µM
8 | O=C1NCC2(CCN(Cc3ccccc3)CC2)N1 | > 100 µM | > 100 µM | > 100 µM | > 100 µM | > 100 µM | > 100 µM | > 100 µM | > 100 µM | > 100 µM | > 100 µM | > 100 µM | > 100 µM | > 100 µM |  | > 100 µM | > 100 µM
9 | Cn1c(=O)cc(NNc2ccc(Br)cc2)[nH]c1=O | > 100 µM | 19.3 µM |  | 41.4 µM | 27.7 µM | 9.34 µM | 8.14 µM | 23.1 µM | 34.9 µM | 22.6 µM | 15.6 µM | > 100 µM | 10.4 µM | > 100 µM |  | 27.7 µM
10 | COc1ccc(OC)c(C2CCCc3c2cnc2nc(N)nc(N)c32)c1 (stereo not drawn) | > 100 µM | > 100 µM | > 100 µM | > 100 µM | > 100 µM | > 100 µM | > 100 µM | > 100 µM | > 100 µM | > 100 µM | > 100 µM | > 100 µM | > 100 µM | > 100 µM |  | > 100 µM
11 | COc1c(C(=O)/C(=N/Nc2ccccc2)C(C)=O)c(O)c(OC)c2occc12 | > 100 µM | > 100 µM | > 100 µM | > 100 µM | > 100 µM | > 100 µM | > 100 µM | > 100 µM | > 100 µM | > 100 µM | > 100 µM | > 100 µM | > 100 µM |  | > 100 µM | 99.6 µM
12 | OC(c1ccsc1)c1cc2ccccc2s1 (stereo not drawn) | > 10 µM | > 10 µM | > 10 µM | > 10 µM | > 10 µM | > 10 µM | > 10 µM | > 10 µM | > 10 µM | > 10 µM | > 10 µM | > 10 µM | > 10 µM |  | > 10 µM | > 10 µM
13 | CC(=O)c1c2c(cc3c1CC1(Cc4cc5c(cc4C1=O)CCC5)C3)CCC2 (stereo not drawn) | > 100 µM | > 100 µM | > 100 µM | > 100 µM | > 100 µM | > 100 µM | > 100 µM | > 100 µM | > 100 µM | > 100 µM | > 100 µM | > 73.7 µM | > 100 µM | > 100 µM |  | 
14 | Cn1c(=O)oc2cc(C(=S)N3CCC(Cc4ccccc4)CC3)ccc21 | > 100 µM | > 100 µM | > 100 µM | > 100 µM | > 100 µM | > 100 µM | > 100 µM | > 100 µM | > 100 µM | > 100 µM | > 100 µM | > 100 µM | > 100 µM | > 100 µM | > 100 µM | 
15 | NCCCCC(N)C(=O)N1CCN(c2nc(N3CCCC3)c3nc(Cl)c(NCc4ccccc4)nc3n2)CC1 (stereo not drawn) | 47.2 µM | 33.5 µM | 37.9 µM | 31.5 µM | 34.3 µM | 47.4 µM | 37.6 µM | 33.9 µM | 35.6 µM | 34.3 µM | 47.7 µM | 37.7 µM | 47.2 µM |  | 34 µM | 25.8 µM
